The data set in a line: Metabolite analysis in plasma, liver, and kidney (TLC). It is filed as in vivo, Crl:CD1(ICR) mice. The note with it: Crl:CD1(ICR), mouse. The text has this: Precoated silica gel 60 F254 chromatoplate (20 × 20 cm, 0.25‐ or 0.5‐mm layer thickness, Merck KGaA) was used for two‐dimensional thin layer chromatography (2D‐TLC) analysis. The solvent systems were ethyl formate/formic acid (95/5, v/v) for the first dimension, and ethyl acetate/acetic acid (95/5, v/v) for the second dimension. The radioactivity on the TLC plates was detected by autoradiography using an imaging plate processed with a fluoro‐image analyzer (FLA‐9500, GE Healthcare). The identity of the metabolites was confirmed by co‐chromatography in comparison with authentic metabolite standards.
Three mice per sex at 8 weeks old were given a single oral dose of [^14C]epyrifenacil at 1 mg/kg with or without co‐administration of OATP inhibitors. […] At 2 h after administration of [^14C]epyifenacil, the animals were euthanized by whole blood collection from the abdominal aorta under anesthesia with isoflurane. The sampling time point was selected as the time around T max based on the result of the blood ^14C‐concentration study. Then, the liver and kidney were dissected out, and the amount of ^14C was measured. Aliquots of heparinized blood samples were separated into blood cells and plasma by centrifugation at 2000g for 10 min at 4°C. The total weight of the liver and kidney was determined for each animal. Two aliquots of plasma and tissue samples (approximately 0.05–0.1 g) were weighed in a glass vial, and the radioactivity was measured.
Approximately 0.3 g of liver, kidney, and plasma samples were pooled, respectively, for each dose and gender to obtain samples for analysis. Pooled liver, kidney, and plasma (ca. 1 g each) samples were homogenized with an approximately 3‐fold volume (v/w) of methanol using the mixer mill MM400 (5 min, 25 cycles/second, Retsch GmbH) and centrifuged (10 000g, 5 min, 4°C) to separate the supernatants from the residues. The extraction was repeated one additional time. The supernatants obtained were pooled and labeled liver, kidney, and plasma extracts. These samples were concentrated and then subjected to TLC analysis. For calculation of extraction efficacy, the post‐extraction solids (PESs) from the tissues and plasma extracts were sampled in low potassium glass vials. PESs were solubilized with 3 M potassium hydroxide solution (approximately 1 ml), then bleached with 30% hydrogen peroxide solution, and finally mixed with 10 ml of Hionic‐Fluor to measure the radioactivity.

[1] abbreviates: kidney, oral, with rifampicin (OATP inhibitor) 200 mg/kg p.o., Male, 2 h after [^14C]Epyrifenacil 1 mg/kg p.o. + Rifampicin 200 mg/kg p.o., read-out: Metabolite concentration, Kidney.
Setting [2] is: kidney, oral, Female, 2 h after [^14C]Epyrifenacil 1 mg/kg p.o., read-out: Metabolite concentration, Kidney.
Setting [3] is: kidney, oral, Male, 2 h after [^14C]Epyrifenacil 1 mg/kg p.o., read-out: Metabolite concentration, Kidney.
Setting [4] is: liver, oral, Female, 2 h after [^14C]Epyrifenacil 1 mg/kg p.o., read-out: Metabolite concentration, Liver.
Where [5] appears, read: liver, oral, Male, 2 h after [^14C]Epyrifenacil 1 mg/kg p.o., read-out: Metabolite concentration, Liver.
[6] abbreviates: plasma, oral, Female, 2 h after [^14C]Epyrifenacil 1 mg/kg p.o., read-out: Metabolite concentration, Plasma.
[7] abbreviates: plasma, oral, Male, 2 h after [^14C]Epyrifenacil 1 mg/kg p.o., pooled samples, read-out: Metabolite concentration, Plasma.

Structures are written as SMILES. Where two headings read alike, the source gives them in different places.

Take `CNC(=O)Nc1cc(Oc2cccnc2OCC(=O)O)c(Cl)cc1F` [M2]: the concentration at 2 h runs as follows: under setting [1], 1 ng/g; under setting [2], 2 ng/g; under setting [3], 4 ng/g; under setting [4], 11 ng/g; under setting [5], 24 ng/g; (plasma, oral, with rifampicin (OATP inhibitor) 200 mg/kg p.o., Female, 2 h after [^14C]Epyrifenacil 1 mg/kg p.o. + Rifampicin 200 mg/kg p.o., read-out: Metabolite concentration, Plasma) 16 ng/g. Further, the concentration at 2 h (plasma, oral, with rifampicin (OATP inhibitor) 200 mg/kg p.o., Male, 2 h after [^14C]Epyrifenacil 1 mg/kg p.o. + Rifampicin 200 mg/kg p.o., read-out: Metabolite concentration, Plasma) was determined as 35 ng/g; the concentration at 2 h under setting [6] stood at 55 ng/g; the concentration at 2 h under setting [7] was determined as 20 ng/g.

`CN1C(=O)N(c2cc(Oc3cccnc3OCC(=O)O)c(Cl)cc2F)C(=O)CC1(O)C(F)(F)F` (centres unmarked) [M4]: the concentration at 2 h was found to be 23 ng/g (female, in vivo, 1 mg/kg, Female, 2 h after [^14C]Epyrifenacil 1 mg/kg p.o., read-out: Metabolite concentration, Kidney); 858 ng/g (female, in vivo, 1 mg/kg, Female, 2 h after [^14C]Epyrifenacil 1 mg/kg p.o., read-out: Metabolite concentration, Liver); 30 ng/g (female, in vivo, Female, 2 h after [^14C]Epyrifenacil 1 mg/kg p.o. + Digoxin 100 mg/kg i.p., read-out: Metabolite concentration, Kidney); 553 ng/g (female, in vivo, Female, 2 h after [^14C]Epyrifenacil 1 mg/kg p.o. + Digoxin 100 mg/kg i.p., read-out: Metabolite concentration, Liver); 7 ng/g (female, in vivo, Female, 2 h after [^14C]Epyrifenacil 1 mg/kg p.o. + Digoxin 200 mg/kg p.o., read-out: Metabolite concentration, Kidney); 291 ng/g (female, in vivo, Female, 2 h after [^14C]Epyrifenacil 1 mg/kg p.o. + Digoxin 200 mg/kg p.o., read-out: Metabolite concentration, Liver). In addition, the concentration at 2 h is 15 ng/g (female, in vivo, Female, 2 h after [^14C]Epyrifenacil 1 mg/kg p.o. + Rifampicin 200 mg/kg p.o., read-out: Metabolite concentration, Kidney); 129 ng/g (female, in vivo, Female, 2 h after [^14C]Epyrifenacil 1 mg/kg p.o. + Rifampicin 200 mg/kg p.o., read-out: Metabolite concentration, Liver); 22 ng/g (female, in vivo, Female, 2 h after [^14C]Epyrifenacil 1 mg/kg p.o. + Rifampicin 200 mg/kg p.o., read-out: Metabolite concentration, Plasma); 3 ng/g (male, in vivo, 1 mg/kg, Male, 2 h after [^14C]Epyrifenacil 1 mg/kg p.o., pooled samples, read-out: Metabolite concentration, Plasma); 9 ng/g (male, in vivo, 1 mg/kg, Male, 2 h after [^14C]Epyrifenacil 1 mg/kg p.o., read-out: Metabolite concentration, Kidney); 1030 ng/g (male, in vivo, 1 mg/kg, Male, 2 h after [^14C]Epyrifenacil 1 mg/kg p.o., read-out: Metabolite concentration, Liver). For the same molecule, the concentration at 2 h is, setting by setting: (male, in vivo, Male, 2 h after [^14C]Epyrifenacil 1 mg/kg p.o. + Digoxin 100 mg/kg i.p., read-out: Metabolite concentration, Kidney) 14 ng/g; (male, in vivo, Male, 2 h after [^14C]Epyrifenacil 1 mg/kg p.o. + Digoxin 100 mg/kg i.p., read-out: Metabolite concentration, Liver) 651 ng/g; (male, in vivo, Male, 2 h after [^14C]Epyrifenacil 1 mg/kg p.o. + Digoxin 200 mg/kg p.o., read-out: Metabolite concentration, Kidney) 5 ng/g; (male, in vivo, Male, 2 h after [^14C]Epyrifenacil 1 mg/kg p.o. + Digoxin 200 mg/kg p.o., read-out: Metabolite concentration, Liver) 157 ng/g; (male, in vivo, Male, 2 h after [^14C]Epyrifenacil 1 mg/kg p.o. + Rifampicin 200 mg/kg p.o., read-out: Metabolite concentration, Kidney) 22 ng/g; (male, in vivo, Male, 2 h after [^14C]Epyrifenacil 1 mg/kg p.o. + Rifampicin 200 mg/kg p.o., read-out: Metabolite concentration, Liver) 172 ng/g. Where the note is “male, in vivo, Male, 2 h after [^14C]Epyrifenacil 1 mg/kg p.o. + Rifampicin 200 mg/kg p.o., read-out: Metabolite concentration, Plasma”, the concentration at 2 h was 4 ng/g.

Take `Cn1c(C(F)(F)F)cc(=O)n(-c2cc(Oc3ccc[nH]c3=O)c(Cl)cc2F)c1=O` [M6]: the concentration at 2 h by setting is: under setting [1], 1 ng/g; under setting [2], 4 ng/g; under setting [3], 8 ng/g; under setting [4], 6 ng/g; under setting [5], 12 ng/g; under setting [6], 15 ng/g. Under setting [7], the concentration at 2 h was determined as 3 ng/g.

These data come from publication PMC8496750, “Identification of the organic anion transporting polypeptides responsible for the hepatic uptake of the major metabolite of epyrifenacil, S‐3100‐CA, in mice” (Pharmacology Research & Perspectives, 2021).
